Earlier results on 1 compound are cited in publication PMC6861001 (Chemistry (Weinheim an der Bergstrasse, Germany), 2019).

With `N[C@@H](C[SeH])C(=O)O` [Sec, selenocysteine], the “pKa of selenol group” value is on record as about 5.2 and the “reduction potential E0” value is recorded as −386 mV.
